From PubChem BioAssay AID1259407 (Chemical Carcinogenesis Research Information System (CCRIS), 2018)
Calls of active or inactive are those of the source. How the calls were made is not given here.

Tested on: CCRIS mutagenicity, Ames/micronucleus/aberration tests
Test: CCRIS mutagenicity studies

Measured: mutagenic call

Nc1ccc(N)cc1
active: End Point: IN VITRO CHROMOSOMAL ABERRATIONS, Test System: CHL CELLS, Metabolic Activation: NONE active; positive (structural changes) | End Point: IN VITRO CHROMOSOMAL ABERRATIONS, Test System: CHL CELLS, Metabolic Activation: RAT, LIVER, S-9, SODIUM PHENOBARBITAL AND 5,6-BENZOFLAVONE active; positive (structural changes) | End Point: IN VITRO MICRONUCLEUS, Test System: CHL/IU CELLS, Metabolic Activation: RAT, LIVER, S-9, PHENOBARBITAL AND 5,6-BENZOFLAVONE active; positive | End Point: In vitro micronucleus, Test System: Human lymphocytes, Metabolic Activation: Rat, Liver, S-9, Aroclor 1254 active; positive | Test System: AMES SALMONELLA TYPHIMURIUM, Strain/Indicator: TA98(NR), Metabolic Activation: RAT, LIVER, S-9, AROCLOR 1254, Method: PREINCUBATION active; positive | Test System: AMES SALMONELLA TYPHIMURIUM, Strain/Indicator: TA98, Metabolic Activation: HAMSTER, LIVER, S-9, AROCLOR 1254 (30%), Method: PREINCUBATION active; positive | Test System: AMES SALMONELLA TYPHIMURIUM, Strain/Indicator: TA98, Metabolic Activation: RAT LIVER S-9, PHENOBARBITAL AND BETA-NAPHTHOFLAVONE, Method: PREINCUBATION active; positive | Test System: AMES SALMONELLA TYPHIMURIUM, Strain/Indicator: TA98, Metabolic Activation: RAT, LIVER, S-9, AROCLOR 1254 active; positive | Test System: AMES SALMONELLA TYPHIMURIUM, Strain/Indicator: TA98, Metabolic Activation: RAT, LIVER, S-9, AROCLOR 1254 (30%), Method: PREINCUBATION active; positive | Test System: AMES SALMONELLA TYPHIMURIUM, Strain/Indicator: TA100(NR), Metabolic Activation: NONE, Method: PREINCUBATION active; positive | Test System: AMES SALMONELLA TYPHIMURIUM, Strain/Indicator: TA1538, Metabolic Activation: RAT, LIVER, S-9, PHENOBARBITAL, Method: STANDARD PLATE active; positive
inactive: Test System: AMES SALMONELLA TYPHIMURIUM, Strain/Indicator: TA98(NR), Metabolic Activation: NONE, Method: PREINCUBATION inactive; negative | Test System: AMES SALMONELLA TYPHIMURIUM, Strain/Indicator: TA98, Metabolic Activation: NONE inactive; negative | Test System: AMES SALMONELLA TYPHIMURIUM, Strain/Indicator: TA98, Metabolic Activation: NONE, Method: PREINCUBATION inactive; negative | Test System: AMES SALMONELLA TYPHIMURIUM, Strain/Indicator: TA98, Metabolic Activation: NONE, Method: STANDARD PLATE inactive; negative | Test System: AMES SALMONELLA TYPHIMURIUM, Strain/Indicator: TA98, Metabolic Activation: PEA APICAL BUD S-9, Method: PREINCUBATION inactive; negative | Test System: AMES SALMONELLA TYPHIMURIUM, Strain/Indicator: TA98, Metabolic Activation: PEA APICAL BUD S-9, Method: STANDARD PLATE inactive; negative | Test System: AMES SALMONELLA TYPHIMURIUM, Strain/Indicator: TA98, Metabolic Activation: PLANT (PERSEA AMERICANA) S-117, Method: STANDARD PLATE inactive; negative | Test System: AMES SALMONELLA TYPHIMURIUM, Strain/Indicator: TA98, Metabolic Activation: PLANT (ZEA MAYS) S-9, Method: STANDARD PLATE inactive; negative | Test System: AMES SALMONELLA TYPHIMURIUM, Strain/Indicator: TA100(NR), Metabolic Activation: RAT, LIVER, S-9, AROCLOR 1254, Method: PREINCUBATION inactive; negative | Test System: AMES SALMONELLA TYPHIMURIUM, Strain/Indicator: TA100, Metabolic Activation: HAMSTER, LIVER, S-9, AROCLOR 1254 (30%), Method: PREINCUBATION inactive; negative | Test System: AMES SALMONELLA TYPHIMURIUM, Strain/Indicator: TA100, Metabolic Activation: NONE, Method: PREINCUBATION inactive; negative | Test System: AMES SALMONELLA TYPHIMURIUM, Strain/Indicator: TA100, Metabolic Activation: NONE, Method: STANDARD PLATE inactive; negative | Test System: AMES SALMONELLA TYPHIMURIUM, Strain/Indicator: TA100, Metabolic Activation: PEA APICAL BUD S-9, Method: PREINCUBATION inactive; negative | Test System: AMES SALMONELLA TYPHIMURIUM, Strain/Indicator: TA100, Metabolic Activation: PEA APICAL BUD S-9, Method: STANDARD PLATE inactive; negative | Test System: AMES SALMONELLA TYPHIMURIUM, Strain/Indicator: TA100, Metabolic Activation: PLANT (PERSEA AMERICANA) S-117, Method: STANDARD PLATE inactive; negative | Test System: AMES SALMONELLA TYPHIMURIUM, Strain/Indicator: TA100, Metabolic Activation: PLANT (ZEA MAYS) S-9, Method: STANDARD PLATE inactive; negative | Test System: AMES SALMONELLA TYPHIMURIUM, Strain/Indicator: TA100, Metabolic Activation: RAT LIVER S-9, PHENOBARBITAL AND BETA-NAPHTHOFLAVONE, Method: PREINCUBATION inactive; negative | Test System: AMES SALMONELLA TYPHIMURIUM, Strain/Indicator: TA100, Metabolic Activation: RAT, LIVER, S-9, AROCLOR 1254 (30%), Method: PREINCUBATION inactive; negative | Test System: AMES SALMONELLA TYPHIMURIUM, Strain/Indicator: TA100, Metabolic Activation: RAT, LIVER, S-9, AROCLOR 1254, Method: PREINCUBATION inactive; negative | Test System: AMES SALMONELLA TYPHIMURIUM, Strain/Indicator: TA100, Metabolic Activation: RAT, LIVER, S-9, AROCLOR 1254, Method: STANDARD PLATE inactive; negative | Test System: AMES SALMONELLA TYPHIMURIUM, Strain/Indicator: TA102, Metabolic Activation: NONE, Method: STANDARD PLATE inactive; negative | Test System: AMES SALMONELLA TYPHIMURIUM, Strain/Indicator: TA1535, Metabolic Activation: NONE, Method: PREINCUBATION inactive; negative | Test System: AMES SALMONELLA TYPHIMURIUM, Strain/Indicator: TA1535, Metabolic Activation: RAT LIVER S-9, PHENOBARBITAL AND BETA-NAPHTHOFLAVONE, Method: PREINCUBATION inactive; negative | Test System: AMES SALMONELLA TYPHIMURIUM, Strain/Indicator: TA1537, Metabolic Activation: NONE, Method: PREINCUBATION inactive; negative | Test System: AMES SALMONELLA TYPHIMURIUM, Strain/Indicator: TA1537, Metabolic Activation: RAT LIVER S-9, PHENOBARBITAL AND BETA-NAPHTHOFLAVONE, Method: PREINCUBATION inactive; negative
